Measurements reported in patent publication US12589156B2, “Benzimidazole and benzimidazolone based protac compounds for the targeted degradation of leucine rich repeat kinase 2 (LRRK2)” (Arvinas Operations, Inc., priority 2023, dated 2026).

Target: T1, WT LRRK2 (Homo sapiens, UniProt Q5S007)
T1 construct: endogenous in cells; host or cells: HEK293 (endogenous LRRK2 gene knock-in tagged with HiBit; stably expressing CMV-driven firefly luciferase)
Assay: LRRK2 HiBit degradation assay (Nano-Glo Dual Luciferase) in HEK293 cells with HiBit-tagged endogenous LRRK2
Type: cell-based
Details: for Dmax: maximal degradation
Description: Biological Assays Exemplary Assay for Testing LRRK2 Degradation Driven by Exemplary Hetero-Bifunctional Compounds Designed to Target LRRK2
The assay measures the degradation of LRRK2 in cells where the C-terminus (3′) of the endogenous gene has been tagged with a HiBit sequence in HEK293 cells. The cells also express firefly lucisferase, expressed from a Cytomegalovirus promoter and introduced into the HiBit tagged cells and stably expressed. The Nano-Glo® Dual Luciferase Reporter Assay System (Promega™, Madison, WI) was utilized.
Day 1—Preparation of Compound and Assay Plates. Two sets of plates were prepared: a triplicate set for the HiBit assay in white 384-well plates and a triplicate set of plate in black 384-well plates for the Alamar Blue cell viability assay. Briefly, the growth media (DMEM+Glutamax-10% fetal bovine serum-1% Penicillin-Streptomicin) from two T128 flasks was aspirated from the flasks. Cells were washed with Dulbecco's Phosphate Buffered Saline (dPBS) and aspirated. Trypsin (3 mL per flask) was added and the flasks were incubated for 2-3 minutes.
Ten mL of OptiMEM—10% fetal bovine-1% penicillin-streptomycin (hereinafter, “OptiMEM media”) was added to the flask and the cells and transferred to a 50 ml conical tube. A cell count (25 ul of cell into Effendorf vial+25 ul of Trypan Blue Stain) was performed and the cell density adjusted to 15,000 cell/45 μl/well (3.33×10^5/mL) in OptiMEM media.
Forty-five microliters of the cell suspension (15,000 cells) was aliquoted to each well of the white 384-well plate. The plates incubated at room temperature for 10 minutes before being placed in the 37° C.+5% CO2 incubator overnight
Day 2—Compound Treatment. Exemplary compounds were prepared at a 1 mM starting concentration and 1:3 serial dilution for 11 points CRC prepared and stored in the freezer. The Master Compound Plate was thawed overnight at room temperature. DMSO (20 μL) was added into column 24 of the Master Compound Plate for negative control and 20 μL of 300 μM of Compound 4 in column 23 as positive control.
Intermediate Compound Plate with 4% DMSO in OptiMEM Media. DMSO was added to warm OptiMEM media to achieve a 4% DMSO solution (approximately 50 mL/plate). One-hundred microliters of the OptiMEM-4% DMSO was aliquoted to each well of 384-Well Deep Well Microplates.
The Master Compound Plate and the Intermediate Compound Plate were spun down.
One microliter of compound from the Master Compound Plate was transferred into the Intermediate plate (a 1:100 dilution). The diluted mixture was mixed and 5 μL transferred into the assay plate (a 1:10 dilution) for the final starting concentration of 1 μM. The Treated Assay plates were incubated for 24 hours at 37° C.+5% CO2. The Master Compound Plate was sealed and store at room temperature for a second run that was performed within a week.
One set of white assay plates was warmed to room temperature (45 minute).
The One Glo luciferase mixture was prepared. The media from white 384-well assay plates was aspirated. Twenty-five μL of the One Glo luciferase mixture was added to each well of the assay plates. The plates were incubated on the bench (room temperature) for 45 minutes, including 10 minutes of shaking at 700 rpm. The luminescence of each plate was read on a plate reader.
1:100 DLR substrate and 1:100 LgBiT Protein dilution were added to the Promega Stop and Glo buffer and mixed just before addition to assay plates. Twenty-five microliters of Stop and Glo mixture was added to each well. Assay plates incubated for at least 45 minutes, including 10 minutes of shaking at 700 rpm. The luminescence of each plate was read on a plate reader.
Analysis of LRRK2 HiBit Screening assays. As mentioned above, plates were run in triplicate and the assay repeated twice (total of 6 replicate for exemplary compounds). For each treatment, measurements were taken for firefly luciferase for cell number, cell viability (Alamar Blue), and Nanoluc for the LRRK2-HiBit quantification. […]

[1] = HEK293, Table 2, HiBit-tagged LRRK2 in HEK293 cells, 24 hours treatment
[2] = Table 2, HiBit-tagged LRRK2 in HEK293 cells, 24 hours treatment, starting concentration 1 μM
[3] = HEK293, Table 3, comparison with direct comparators
[4] = Table 3, comparison with direct comparators, HiBit-tagged LRRK2 in HEK293 cells, 24 hours treatment

T1 sequence (Q5S007 whole entry): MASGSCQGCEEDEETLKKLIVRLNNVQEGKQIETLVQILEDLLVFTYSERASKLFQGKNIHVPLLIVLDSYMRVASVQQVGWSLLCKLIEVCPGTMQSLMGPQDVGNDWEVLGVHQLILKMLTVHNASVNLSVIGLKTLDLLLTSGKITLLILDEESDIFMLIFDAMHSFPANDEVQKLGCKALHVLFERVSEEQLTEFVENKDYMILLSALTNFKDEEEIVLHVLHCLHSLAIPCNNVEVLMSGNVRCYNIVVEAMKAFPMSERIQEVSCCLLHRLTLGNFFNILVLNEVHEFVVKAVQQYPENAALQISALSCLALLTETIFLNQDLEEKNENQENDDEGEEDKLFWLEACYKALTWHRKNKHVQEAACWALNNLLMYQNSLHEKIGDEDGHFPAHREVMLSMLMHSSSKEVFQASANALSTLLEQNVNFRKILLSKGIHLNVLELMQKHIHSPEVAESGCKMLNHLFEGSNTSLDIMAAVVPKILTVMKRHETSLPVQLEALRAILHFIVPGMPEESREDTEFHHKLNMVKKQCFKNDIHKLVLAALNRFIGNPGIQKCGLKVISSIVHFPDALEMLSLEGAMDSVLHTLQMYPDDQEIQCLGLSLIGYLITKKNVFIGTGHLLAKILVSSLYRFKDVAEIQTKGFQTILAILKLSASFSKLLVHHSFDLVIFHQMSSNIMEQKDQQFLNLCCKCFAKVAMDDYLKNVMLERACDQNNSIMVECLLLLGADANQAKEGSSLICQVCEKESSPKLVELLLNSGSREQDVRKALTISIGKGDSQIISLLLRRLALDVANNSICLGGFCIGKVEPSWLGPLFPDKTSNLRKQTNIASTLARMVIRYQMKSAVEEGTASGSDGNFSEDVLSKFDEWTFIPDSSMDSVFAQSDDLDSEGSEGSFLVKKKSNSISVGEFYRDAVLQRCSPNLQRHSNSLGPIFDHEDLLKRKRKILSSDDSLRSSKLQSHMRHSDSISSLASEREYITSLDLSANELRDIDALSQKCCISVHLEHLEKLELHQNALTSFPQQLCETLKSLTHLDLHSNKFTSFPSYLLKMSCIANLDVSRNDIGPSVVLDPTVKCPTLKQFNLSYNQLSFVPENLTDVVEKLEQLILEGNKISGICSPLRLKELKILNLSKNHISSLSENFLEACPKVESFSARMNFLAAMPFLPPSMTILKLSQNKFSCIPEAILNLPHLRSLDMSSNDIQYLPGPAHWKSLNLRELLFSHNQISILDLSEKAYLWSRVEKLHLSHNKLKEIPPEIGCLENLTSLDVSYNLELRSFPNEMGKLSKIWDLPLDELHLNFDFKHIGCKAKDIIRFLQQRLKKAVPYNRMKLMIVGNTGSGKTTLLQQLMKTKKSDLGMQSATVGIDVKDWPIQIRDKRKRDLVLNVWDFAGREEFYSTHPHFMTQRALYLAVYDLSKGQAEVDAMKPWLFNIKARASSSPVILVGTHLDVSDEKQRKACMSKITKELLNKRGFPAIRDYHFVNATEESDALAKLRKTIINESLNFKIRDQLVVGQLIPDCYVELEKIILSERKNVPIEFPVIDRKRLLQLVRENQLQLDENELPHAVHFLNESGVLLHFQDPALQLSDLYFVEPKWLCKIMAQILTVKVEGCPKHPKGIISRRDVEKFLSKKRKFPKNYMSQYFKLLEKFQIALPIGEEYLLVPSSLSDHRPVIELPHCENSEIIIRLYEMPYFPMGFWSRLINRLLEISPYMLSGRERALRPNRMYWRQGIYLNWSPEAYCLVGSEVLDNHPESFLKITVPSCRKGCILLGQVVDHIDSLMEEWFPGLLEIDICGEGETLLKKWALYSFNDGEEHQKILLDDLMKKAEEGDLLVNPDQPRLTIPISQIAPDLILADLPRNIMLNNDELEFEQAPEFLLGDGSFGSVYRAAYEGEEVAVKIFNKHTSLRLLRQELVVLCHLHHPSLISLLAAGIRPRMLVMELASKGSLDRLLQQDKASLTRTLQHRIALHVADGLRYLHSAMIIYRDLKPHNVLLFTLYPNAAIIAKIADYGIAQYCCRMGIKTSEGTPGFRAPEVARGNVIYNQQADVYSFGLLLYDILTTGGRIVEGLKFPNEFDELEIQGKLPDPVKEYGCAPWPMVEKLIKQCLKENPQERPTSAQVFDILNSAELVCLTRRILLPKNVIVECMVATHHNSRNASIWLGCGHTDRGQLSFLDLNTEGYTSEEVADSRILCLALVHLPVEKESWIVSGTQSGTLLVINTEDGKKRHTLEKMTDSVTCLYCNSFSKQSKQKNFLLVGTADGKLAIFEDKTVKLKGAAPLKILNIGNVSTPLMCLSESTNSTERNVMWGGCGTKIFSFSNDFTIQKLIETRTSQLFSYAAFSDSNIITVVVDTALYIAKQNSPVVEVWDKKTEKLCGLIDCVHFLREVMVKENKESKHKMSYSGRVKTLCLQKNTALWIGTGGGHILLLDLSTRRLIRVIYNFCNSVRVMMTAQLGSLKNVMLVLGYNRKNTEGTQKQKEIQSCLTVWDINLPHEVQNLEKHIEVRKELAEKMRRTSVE

Dmax [1] [%]	DC50 [2] [nM]	Dmax [3] [%]	DC50 [4] [nM]	Structure (SMILES)
41	0.74			CC(C)Oc1cc2c(-c3cc(N4CCN(C[C@H]5CC[C@H](OC6CCN(c7ccc8c(c7)n(C(C)C)c(=O)n8C7CCC(=O)NC7=O)CC6)CC5)CC4)ncn3)n[nH]c2cn1 (single isomer, unassigned) [Compound 59, rel-3-[2-oxo-3-(propan-2-yl)-5-(4-{[(1r,4r)-4-[(4-{6-[5-(propan-2-yloxy)-1H-pyrazolo[3,4-c]pyridin-3-yl]pyrimidin-4-yl}piperazin-1-yl)methyl]cyclohexyl]oxy}piperidin-1-yl)-2,3-dihydro-1H-1,3-benzodiazol-1-yl]piperidine-2,6-dione]
90	5.9			Cn1c(=O)n(C2CCC(=O)NC2=O)c2cc(Br)c(N3CCC(O[C@H]4CC[C@H](CN5CCN(c6cc(-c7n[nH]c8cnc(OC9(C)CC9)cc78)ncn6)CC5)CC4)CC3)cc21 (single isomer, unassigned) [Compound 67, rel-3-[6-bromo-3-methyl-2-oxo-5-(4-{[(1r,4r)-4-[(4-{6-[5-(1-methylcyclopropoxy)-1H-pyrazolo[3,4-c]pyridin-3-yl]pyrimidin-4-yl}piperazin-1-yl)methyl]cyclohexyl]oxy}piperidin-1-yl)-2,3-dihydro-1H-1,3-benzodiazol-1-yl]piperidine-2,6-dione]
		52	5.6	COc1c(N2CCC(O[C@H]3CC[C@H](CN4CCN(c5cc(-c6n[nH]c7cnc(OC8(C)CC8)cc67)ncn5)CC4)CC3)CC2)ccc2c1CN(C1CCC(=O)NC1=O)C2=O (stereo partly drawn) [Comparative Example 1, reference compound]
		62	3	COc1c(N2CCC(O[C@H]3CC[C@H](CN4CCN(c5cc(-c6[nH]nc7ccc(OC8(C)CC8)cc67)ncn5)CC4)CC3)CC2)ccc2c1CN(C1CCC(=O)NC1=O)C2=O (stereo partly drawn) [Comparative Example 2, reference compound]
		65	4.3	CC1(Oc2cc3c(-c4cc(N5CCN(C[C@H]6CC[C@H](OC7CCN(c8ccc9c(c8F)CN(C8CCC(=O)NC8=O)C9=O)CC7)CC6)CC5)ncn4)n[nH]c3cn2)CC1 (stereo partly drawn) [Comparative Example 3, reference compound]
		80	0.79	COc1c(N2CCC(CN3CCN(CC4CCN(c5cc(-c6n[nH]c7ccc(OC8(C)CC8)cc67)ncn5)CC4)CC3)CC2)ccc2c1CN(C1CCC(=O)NC1=O)C2=O (stereo not drawn) [Comparative Example 4, reference compound]
		68	1.7	COc1c(N2CCC(CN3CCN(CC4CCN(c5cc(-c6n[nH]c7cnc(OC8(C)CC8)cc67)ncn5)CC4)C(C)(C)C3)CC2)ccc2c1CN(C1CCC(=O)NC1=O)C2=O (stereo not drawn) [Comparative Example 6, reference compound]

Second part, the molecule before the results:

Structure (SMILES)	Dmax [1] [%]	DC50 [2] [nM]	Dmax [3] [%]	DC50 [4] [nM]
COc1ccc2[nH]nc(-c3cc(N4CCN(C[C@H]5CC[C@H](OC6CCN(c7ccc8c(c7)n(C)c(=O)n8C7CCC(=O)NC7=O)CC6)CC5)CC4)ncn3)c2c1 (single isomer, unassigned) [Compound 60, rel-3-[3-methyl-2-oxo-5-(4-{[(1r,4r)-4-({4-[6-(5-methoxy-1H-indazol-3-yl)pyrimidin-4-yl]piperazin-1-yl}methyl)cyclohexyl]oxy}piperidin-1-yl)-2,3-dihydro-1H-1,3-benzodiazol-1-yl]piperidine-2,6-dione]	38	0.67		
CCOc1ccc2[nH]nc(-c3cc(N4CCN(C[C@H]5CC[C@H](OC6CCN(c7ccc8c(c7)n(C)c(=O)n8C7CCC(=O)NC7=O)CC6)CC5)CC4)ncn3)c2c1 (single isomer, unassigned) [Compound 61, rel-3-[3-methyl-2-oxo-5-(4-{[(1r,4r)-4-({4-[6-(5-ethoxy-1H-indazol-3-yl)pyrimidin-4-yl]piperazin-1-yl}methyl)cyclohexyl]oxy}piperidin-1-yl)-2,3-dihydro-1H-1,3-benzodiazol-1-yl]piperidine-2,6-dione]	48	0.51		
Cn1c(=O)n(C2CCC(=O)NC2=O)c2ccc(N3CCC(O[C@H]4CC[C@H](CN5CCN(c6cc(-c7n[nH]c8ccc(C9(C#N)CCC9)cc78)ncn6)CC5)CC4)CC3)cc21 (single isomer, unassigned) [Compound 62, rel-1-{3-[6-(4-{[(1r,4r)-4-({1-[1-(2,6-dioxopiperidin-3-yl)-3-methyl-2-oxo-2,3-dihydro-1H-1,3-benzodiazol-5-yl]piperidin-4-yl}oxy)cyclohexyl]methyl}piperazin-1-yl)pyrimidin-4-yl]-1H-indazol-5-yl}cyclobutane-1-carbonitrile]	54	0.3		
Cn1c(=O)n(C2CCC(=O)NC2=O)c2ccc(N3CCC(O[C@H]4CC[C@H](CN5CCN(c6cc(-c7n[nH]c8ccc(C9(C#N)CC9)cc78)ncn6)CC5)CC4)CC3)cc21 (single isomer, unassigned) [Compound 63, rel-1-{3-[6-(4-{[(1r,4r)-4-({1-[1-(2,6-dioxopiperidin-3-yl)-3-methyl-2-oxo-2,3-dihydro-1H-1,3-benzodiazol-5-yl]piperidin-4-yl}oxy)cyclohexyl]methyl}piperazin-1-yl)pyrimidin-4-yl]-1H-indazol-5-yl}cyclopropane-1-carbonitrile]	56	0.13		
Cn1c(=O)n(C2CCC(=O)NC2=O)c2ccc(N3CCC(O[C@H]4CC[C@H](CN5CCN(c6cc(-c7n[nH]c8ccc(C9(C#N)CC%10(CC%10)C9)cc78)ncn6)CC5)CC4)CC3)cc21 (single isomer, unassigned) [Compound 64, rel-5-{3-[6-(4-{[(1r,4r)-4-({1-[1-(2,6-dioxopiperidin-3-yl)-3-methyl-2-oxo-2,3-dihydro-1H-1,3-benzodiazol-5-yl]piperidin-4-yl}oxy)cyclohexyl]methyl}piperazin-1-yl)pyrimidin-4-yl]-1H-indazol-5-yl}spiro[2.3]hexane-5-carbonitrile]	63	0.16		
Cn1c(=O)n(C2CCC(=O)NC2=O)c2ccc(N3CCC(O[C@H]4CC[C@H](CN5CCN(c6cc(-c7n[nH]c8ccc([C@@]9(C#N)CC9%10CC%10)cc78)ncn6)CC5)CC4)CC3)cc21 (single isomer, unassigned) [Compound 65, (1R**)-1-{3-[6-(4-{[(1r*,4r*)-4-({1-[1-(2,6-dioxopiperidin-3-yl)-3-methyl-2-oxo-2,3-dihydro-1H-1,3-benzodiazol-5-yl]piperidin-4-yl}oxy)cyclohexyl]methyl}piperazin-1-yl)pyrimidin-4-yl]-1H-indazol-5-yl}spiro[2.2]pentane-1-carbonitrile]	64	0.13		
Cn1c(=O)n(C2CCC(=O)NC2=O)c2ccc(N3CCC(O[C@H]4CC[C@H](CN5CCN(c6cc(-c7n[nH]c8ccc([C@]9(C#N)CC9%10CC%10)cc78)ncn6)CC5)CC4)CC3)cc21 (single isomer, unassigned) [Compound 66, (1R**)-1-{3-[6-(4-{[(1r*,4r*)-4-({1-[1-(2,6-dioxopiperidin-3-yl)-3-methyl-2-oxo-2,3-dihydro-1H-1,3-benzodiazol-5-yl]piperidin-4-yl}oxy)cyclohexyl]methyl}piperazin-1-yl)pyrimidin-4-yl]-1H-indazol-5-yl}spiro[2.2]pentane-1-carbonitrile]	61	0.14		
COc1c(N2CCC(CN3CCN(CC4CCN(c5cc(-c6n[nH]c7ccc(OC8(C)CC8)cc67)ncn5)CC4)C(C)(C)C3)CC2)ccc2c1CN(C1CCC(=O)NC1=O)C2=O (stereo not drawn) [Comparative Example 5, reference compound]			65	1.6
